The numbers were not newly measured in patent US20230172202A1, “INSECT AND NON-INSECT ARTHROPOD PEST REPELLENT COMPOSITIONS AND METHODS” (Livful Inc., priority 2021, published 2023), which cites them from elsewhere.

The subject of one data set is mosquitos. The following applies: 25% active ingredient (IR3535 in ethanol); human subjects, field.
The conditions of data set [1]: according to the manufacturer (Merck KGaA).

In the case of `CCN(CC)C(=O)c1cccc(C)c1` [DEET, N,N-diethyl-m-toluamide], the “mean complete protection time (mean CPT)” value with mosquitos was 5.6 h.

Take `CCCCN(CCC(=O)OCC)C(C)=O` [IR3535®, ethyl butylacetylaminopropionate]: in data set [1], the “ideal pH for IR3535” value is recorded as 6.0-6.5. Further, in the data set on mosquitos, the “mean complete protection time (mean CPT)” value was 3.0 h.
